{
  "source": "patent US7547763B2",
  "about": "“Sequences of an Ih ion channel and use thereof” (Forschungszentrum Julich GmbH, priority 1998, dated 2009)",
  "key": {"SPIH channel [1]": {"test_system": "SPIH channel", "assay": "Blockade of the SPIH channel by extracellular Cs+ on outside-out membrane patches", "assay_type": "cell-based, Strongylocentrotus purpuratus", "method": "(§1) cDNA coding the SPIH polypeptide was transiently expressed in HEK293 cells, as described earlier (Baumann et al, 1994). SPIH-controlled currents were recorded with the patch-clamp method in the whole-cell configuration and cell-free membrane patches. The composition of various bath and pipette solutions is indicated in the legends of the figures (see below). The channels were activated by stepping the membrane voltage from +10 mV to various negative voltage values. Leakage currents were subtracted using a P/8 protocol. The voltage dependence of the probability that the channel is open was determined from tail currents at +10 mV. The blockade of the SPIH channel by Cs2+ was analyzed with outside-out membrane patches in the presence of 1 mM cAPM in a pipette solution. The solutions in the bath contained 0.03 to 10 mM CsCl. Relative ion permeabilities were calculated from the respective shift of Vrev, which was measured on cell-free inside-out membrane patches, when 100 mM K^+ in the bath had been replaced by Na^+, Li^+, Rb^+ or Cs^+."}, "SPIH channel [2]": {"test_system": "SPIH channel", "assay": "Whole-cell patch-clamp of SPIH currents in transfected HEK293 cells, cyclic nucleotides or caged derivatives in the pipette", "assay_type": "cell-based, Strongylocentrotus purpuratus", "method": "as §1, with “The voltage dependence of the probability that the channel is open was determined from tail currents at +10 mV. The blockade of the SPIH channel by Cs2+ was analyzed with outside-out membrane patches in the presence of 1 mM cAPM in a pipette solution.” left out, “Cs^+. […] The voltage-step protocol is the same as in FIG. 2A. The bath contained (mM): 135 NaCl, 5 KCl, 1.8 CaCl2, 2.8 MgCl2 and 5 Hepes-NaOH at pH 7.4; the pipette solution contained […]” for “Cs^+.”"}, "SPIH channel [3]": {"biological_target": "T1, SPIH channel (Strongylocentrotus purpuratus, UniProt O76977)", "T1 sequence (O76977 1-767)": "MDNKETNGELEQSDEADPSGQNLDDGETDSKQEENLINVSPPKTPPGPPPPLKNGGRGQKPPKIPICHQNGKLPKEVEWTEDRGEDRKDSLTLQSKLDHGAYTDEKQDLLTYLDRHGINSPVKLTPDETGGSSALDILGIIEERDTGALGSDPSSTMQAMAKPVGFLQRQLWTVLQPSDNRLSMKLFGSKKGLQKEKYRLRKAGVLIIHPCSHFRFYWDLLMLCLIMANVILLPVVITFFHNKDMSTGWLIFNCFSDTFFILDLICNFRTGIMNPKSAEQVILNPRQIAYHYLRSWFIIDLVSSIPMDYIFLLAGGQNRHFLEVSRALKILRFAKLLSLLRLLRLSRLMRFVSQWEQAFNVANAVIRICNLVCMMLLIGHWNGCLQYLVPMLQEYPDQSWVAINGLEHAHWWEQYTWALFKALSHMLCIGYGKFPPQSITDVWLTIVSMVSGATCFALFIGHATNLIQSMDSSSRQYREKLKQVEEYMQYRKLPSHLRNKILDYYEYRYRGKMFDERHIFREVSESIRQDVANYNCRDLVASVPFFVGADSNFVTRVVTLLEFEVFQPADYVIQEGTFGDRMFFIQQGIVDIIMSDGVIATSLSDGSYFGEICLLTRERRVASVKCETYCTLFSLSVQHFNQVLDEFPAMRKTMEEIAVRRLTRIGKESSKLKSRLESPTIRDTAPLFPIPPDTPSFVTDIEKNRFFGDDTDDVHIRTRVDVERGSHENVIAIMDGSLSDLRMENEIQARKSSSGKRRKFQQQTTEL", "assay": "Patch-clamp of SPIH currents on excised inside-out membrane patches of transfected HEK293 cells, modulation by cyclic nucleotides", "assay_type": "cell-based", "method": "as §1"}},
  "note": "pKi: −log10 of the molar value.",
  "data": [
    {"smiles": "[Cs+]", "note": "[Cs^+]", "values": [
      {"measurement": "effect on currents", "setting": "SPIH channel [1]; 10 mM Cs+ in the bath", "value": "inward currents disappeared completely"},
      {"measurement": "pKi", "setting": "SPIH channel [1]; at −70 mV, 1 mM cAMP in pipette, Hill fit, read-out: inhibitory constant Ki for block of standardized current I/Imax", "value": 3.61}
    ]},
    {"smiles": "Nc1nc2c(ncn2[C@@H]2O[C@@H]3COP(=O)(O)O[C@H]3[C@H]2O)c(=O)[nH]1", "note": "[cGMP]", "values": [
      {"measurement": "effect on SPIH-induced whole-cell currents", "setting": "SPIH channel [2]; 1 mM in the pipette", "value": "also changed the SPIH-induced currents"},
      {"measurement": "effect on amplitude of the SPIH currents", "setting": "SPIH channel [3]; cGMP concentrations of up to 1 mM, excised membrane patches", "value": "did not change the amplitude of the SPIH currents"}
    ]},
    {"smiles": "Nc1ncnc2c1ncn2[C@@H]1O[C@@H]2COP(=O)(O)O[C@H]2[C@H]1O", "note": "[cAMP]", "values": [
      {"measurement": "V1/2 of voltage dependence of Po", "setting": "SPIH channel [2]; whole-cell tail currents, 1 mM cAMP in pipette, Boltzmann fit", "value": "−50.8", "unit": "mV"},
      {"measurement": "enhancement of the amplitudes of the voltage-activated currents", "setting": "SPIH channel [3]; 1 mM cAMP, excised membrane patches", "value": "up to 20 fold"},
      {"measurement": "Hill coefficient n of the cAMP dependence of the SPIH current", "setting": "SPIH channel [3]; inside-out patches, fit of Hill equation, mean of 10 experiments", "value": 1.05},
      {"measurement": "V1/2 of voltage dependence of Po", "setting": "SPIH channel [3]; inside-out-patch tail currents, 1 mM cAMP in bath, Boltzmann fit", "value": "−84.7", "unit": "mV"}
    ]}
  ]
}
